In ChEMBL document CHEMBL4002565, “Synthesis, biological evaluation and in silico molecular modeling of pyrrolyl benzohydrazide derivatives as enoyl ACP reductase inhibitors” (Eur J Med Chem, 2017):
Converted amounts (≈) assume the structure as drawn.

Tests used:
[1] = system: Staphylococcus aureus; test: Antibacterial activity against Staphylococcus aureus after 18 hrs by broth microdilution method; type: functional
[2] = system: Mycobacterium tuberculosis; test: Inhibition of Mycobacterium tuberculosis His6-tagged wild type InhA expressed in Escherichia coli BL21 at 50 uM using DDCoA as substrate relative to control
[3] = system: Mycobacterium tuberculosis; test: Antitubercular activity against Mycobacterium tuberculosis H37Rv after 5 days by microplate Alamar blue assay; type: functional; conditions: 120 h
[4] = system: Escherichia coli; test: Antibacterial activity against Escherichia coli after 18 hrs by broth microdilution method; type: functional
[5] = system: A549; test: Cytotoxicity against human A549 cells by MTT assay; type: cell-based

Compound	MIC [1] [µg/mL]	inhibition [2] [%]	MIC [3] [µg/mL]	MIC [4] [µg/mL]	IC50 [5] [µM]
Cc1ccccc1C(=O)NNC(=O)c1ccc(-n2cccc2)cc1	25 (≈ 78.3 µM)	12	12.5 (≈ 39.1 µM)	12.5 (≈ 39.1 µM)	196
Nc1ccccc1C(=O)NNC(=O)c1ccc(-n2cccc2)cc1	25 (≈ 78 µM)	–	12.5 (≈ 39 µM)	12.5 (≈ 39 µM)	–
O=C(NNC(=O)c1cccc([N+](=O)[O-])c1)c1ccc(-n2cccc2)cc1	50 (≈ 143 µM)	–	25 (≈ 71.4 µM)	25 (≈ 71.4 µM)	–
Oc1cc(Cl)ccc1Oc1ccc(Cl)cc1Cl	–	> 99	–	–	–
O=C(NNC(=O)c1ccccc1Br)c1ccc(-n2cccc2)cc1	6.25 (≈ 16.3 µM)	–	3.12 (≈ 8.13 µM)	3.12 (≈ 8.13 µM)	–
O=C(NNC(=O)c1ccc(-n2cccc2)cc1)c1ccc(Br)cc1	6.25 (≈ 16.3 µM)	38	3.12 (≈ 8.13 µM)	3.12 (≈ 8.13 µM)	40.2
O=C(NNC(=O)c1ccc(Cl)cc1Cl)c1ccc(-n2cccc2)cc1	12.5 (≈ 33.4 µM)	–	3.12 (≈ 8.35 µM)	3.12 (≈ 8.35 µM)	–
CCn1cc(C(=O)O)c(=O)c2cc(F)c(N3CCNCC3)cc21 [NORFLOXACIN]	2.02 (≈ 6.33 µM)	–	–	4 (≈ 12.5 µM)	–
O=C(NNC(=O)c1cccc(Cl)c1)c1ccc(-n2cccc2)cc1	12.5 (≈ 36.8 µM)	–	6.25 (≈ 18.4 µM)	3.12 (≈ 9.2 µM)	–
Nc1ccc(C(=O)NNC(=O)c2ccc(-n3cccc3)cc2)cc1	25 (≈ 78 µM)	–	12.5 (≈ 39 µM)	12.5 (≈ 39 µM)	–
O=C(O)c1cn(C2CC2)c2cc(N3CCNCC3)c(F)cc2c1=O [CIPROFLOXACIN]	0.15 (≈ 0.453 µM)	–	–	–	–
O=C(NNC(=O)c1ccc(-n2cccc2)cc1)c1ccc(F)cc1	6.25 (≈ 19.3 µM)	35	6.25 (≈ 19.3 µM)	3.12 (≈ 9.67 µM)	194
Nc1cccc(C(=O)NNC(=O)c2ccc(-n3cccc3)cc2)c1	50 (≈ 156 µM)	–	25 (≈ 78 µM)	25 (≈ 78 µM)	–
O=C(NNC(=O)c1ccc(-n2cccc2)cc1)c1ccc(Cl)cc1	6.25 (≈ 18.4 µM)	36	3.12 (≈ 9.2 µM)	3.12 (≈ 9.2 µM)	40.2
O=C(NNC(=O)c1ccc(-n2cccc2)cc1)c1ccc(O)cc1	25 (≈ 77.8 µM)	29	12.5 (≈ 38.9 µM)	12.5 (≈ 38.9 µM)	96
COc1ccc(C(=O)NNC(=O)c2ccc(-n3cccc3)cc2)cc1	25 (≈ 74.5 µM)	13	12.5 (≈ 37.3 µM)	25 (≈ 74.5 µM)	244
O=C(NNC(=O)c1ccccc1Cl)c1ccc(-n2cccc2)cc1	12.5 (≈ 36.8 µM)	–	3.12 (≈ 9.2 µM)	6.25 (≈ 18.4 µM)	–
Cc1ccc(C(=O)NNC(=O)c2ccc(-n3cccc3)cc2)cc1	25 (≈ 78.3 µM)	–	12.5 (≈ 39.1 µM)	6.25 (≈ 19.6 µM)	–
CO[C@H]1/C=C/O[C@@]2(C)Oc3c(C)c(O)c4c(O)c(c(/C=N/N5CCN(C)CC5)c(O)c4c3C2=O)NC(=O)/C(C)=C\C=C\[C@H](C)[C@H](O)[C@@H](C)[C@@H](O)[C@@H](C)[C@H](OC(C)=O)[C@@H]1C [RIFAMPIN]	–	–	0.4 (≈ 0.486 µM)	–	–
O=C(NNC(=O)c1ccc(-n2cccc2)cc1)c1ccccc1	50 (≈ 164 µM)	13	50 (≈ 164 µM)	25 (≈ 81.9 µM)	248
CC(=O)c1cccc(C(=O)NNC(=O)c2ccc(-n3cccc3)cc2)c1	25 (≈ 72 µM)	31	12.5 (≈ 36 µM)	12.5 (≈ 36 µM)	79.2
CC[C@@H](CO)NCCN[C@@H](CC)CO [ETHAMBUTOL]	–	–	0.5 (≈ 2.45 µM)	–	–
Cc1cccc(C(=O)NNC(=O)c2ccc(-n3cccc3)cc2)c1	50 (≈ 157 µM)	29	12.5 (≈ 39.1 µM)	12.5 (≈ 39.1 µM)	196
O=C(NNC(=O)c1ccc([N+](=O)[O-])cc1)c1ccc(-n2cccc2)cc1	25 (≈ 71.4 µM)	22	12.5 (≈ 35.7 µM)	12.5 (≈ 35.7 µM)	96
